Values of other authors in patent US20230019999A1, “COMBINATION DRUG” (Chugai Seiyaku Kabushiki Kaisha, priority 2019, published 2023).

Tested on: lung cancer cells positive for the CCDC6-RET fusion gene
Conditions: non-clinical studies, Non Patent Literatures 9 and 10

## CCc1cc2c(cc1N1CCC(N3CCOCC3)CC1)C(C)(C)c1[nH]c3cc(C#N)ccc3c1C2=O [Alectinib, 9-ethyl-6,6-dimethyl-8-[4-(morpholin-4-yl)-piperidin-1-yl]-11-oxo-6,11-dihydro-5H-benzo[b]carbazole-3-carbonitrile]
  anti-tumor effect: exhibit an anti-tumor effect
